From the OligoGym collection
Where “and” joins values, the source holds several entries; their conditions need not be identical. Equal entries are not always repeated. HELM strings list units from the 5' end as sugar, base in round brackets, then linkage (d deoxyribose, r ribose, m 2'-O-methyl, p phosphodiester). Methylation of C is not given here. [moe] = 2'-O-(2-methoxyethyl) (MOE); [cEt] = constrained ethyl (cEt); [sp] = phosphorothioate linkage

Biological target: HBV
Conditions: ASO

Substance | target mRNA inhibition (HepG2, 0.07 µM) | other results
RNA1{[moe](G)[sp].[cEt](A)[sp].[cEt](G)[sp].d(G)[sp].d(C)[sp].d(C)[sp].d(C)[sp].d(A)[sp].d(C)[sp].d(T)[sp].d(C)[sp].d(C)[sp].d(C)[sp].[cEt](A)[sp].[cEt](T)[sp].[moe](A)}$$$$V2.0 | – | target mRNA inhibition (HepG2, 0.0092593 µM): 29%; target mRNA inhibition (HepG2, 0.0277778 µM): 63%; target mRNA inhibition (HepG2, 0.0833333 µM): 87%; target mRNA inhibition (HepG2, 0.25 µM): 85%
RNA1{[moe](T)[sp].[moe](A)[sp].[moe](T)[sp].d(G)[sp].d(C)[sp].d(C)[sp].d(T)[sp].d(A)[sp].d(C)[sp].d(A)[sp].d(G)[sp].d(C)[sp].[moe](C)[sp].[moe](T)[sp].[moe](C)[sp].[moe](C)}$$$$V2.0 | 49% and 46% | –
RNA1{[moe](C)[sp].[moe](C)[sp].[moe](A)[sp].[moe](C)[sp].d(T)[sp].d(G)[sp].d(A)[sp].d(A)[sp].d(C)[sp].d(A)[sp].d(A)[sp].d(A)[sp].d(T)[sp].[moe](G)[sp].[moe](G)[sp].[moe](C)}$$$$V2.0 | 57% and 68% | –
RNA1{[moe](G)[sp].[cEt](A)[sp].[cEt](G)[sp].d(G)[sp].d(T)[sp].d(G)[sp].d(A)[sp].d(A)[sp].d(G)[sp].d(C)[sp].d(G)[sp].d(A)[sp].d(A)[sp].[cEt](G)[sp].[cEt](T)[sp].[moe](G)}$$$$V2.0 | 71% | –
RNA1{[moe](G)[sp].[moe](T)[sp].[moe](G)[sp].[moe](C)[sp].[moe](A)[sp].[moe](G)[sp].d(A)[sp].d(G)[sp].d(G)[sp].d(T)[sp].d(G)[sp].d(A)[sp].d(A)[sp].d(G)[sp].d(C)[sp].[moe](G)[sp].[moe](A)}$$$$V2.0 | 78% and 70% | target mRNA inhibition (HepG2, 0.0092593 µM): 7%; target mRNA inhibition (HepG2, 0.0277778 µM): 4%; target mRNA inhibition (HepG2, 0.0833333 µM): 38%; target mRNA inhibition (HepG2, 0.25 µM): 76%
RNA1{[moe](C)[sp].[moe](G)[sp].[moe](T)[sp].[moe](G)[sp].[moe](C)[sp].[moe](A)[sp].d(G)[sp].d(A)[sp].d(G)[sp].d(G)[sp].d(T)[sp].d(G)[sp].d(A)[sp].d(A)[sp].d(G)[sp].[moe](C)[sp].[moe](G)}$$$$V2.0 | 81% and 64% | –
RNA1{[moe](A)[sp].[moe](G)[sp].[moe](A)[sp].[moe](A)[sp].[moe](G)[sp].d(T)[sp].d(C)[sp].d(C)[sp].d(A)[sp].d(C)[sp].d(C)[sp].d(A)[sp].d(C)[sp].d(G)[sp].[moe](A)[sp].[moe](G)[sp].[moe](T)}$$$$V2.0 | 11% and 0% | –
RNA1{[moe](G)[sp].[moe](C)[sp].[moe](A)[sp].[moe](G)[sp].d(A)[sp].d(G)[sp].d(G)[sp].d(T)[sp].d(G)[sp].d(A)[sp].d(A)[sp].d(G)[sp].d(C)[sp].[moe](G)[sp].[moe](A)[sp].[moe](A)[sp].[moe](G)}$$$$V2.0 | 52% | –
RNA1{[moe](A)[sp].[moe](T)[sp].[moe](T)[sp].[moe](T)[sp].d(A)[sp].d(T)[sp].d(G)[sp].d(C)[sp].d(C)[sp].d(T)[sp].d(A)[sp].d(C)[sp].d(A)[sp].[moe](G)[sp].[moe](C)[sp].[moe](C)[sp].[moe](T)}$$$$V2.0 | 58% and 42% | –
RNA1{[moe](A)[sp].[moe](G)[sp].[moe](G)[sp].[moe](C)[sp].[moe](A)[sp].d(T)[sp].d(A)[sp].d(G)[sp].d(C)[sp].d(A)[sp].d(G)[sp].d(C)[sp].d(A)[sp].d(G)[sp].[moe](G)[sp].[moe](A)[sp].[moe](T)}$$$$V2.0 | 61% and 56% | –
RNA1{[moe](T)[sp].[cEt](G)[sp].d(A)[sp].d(A)[sp].d(G)[sp].d(C)[sp].d(G)[sp].d(A)[sp].d(A)[sp].d(G)[sp].d(T)[sp].d(G)[sp].[cEt](C)[sp].[moe](A)[sp].[cEt](C)[sp].[moe](A)}$$$$V2.0 | 76% and 71% | –
RNA1{[moe](C)[sp].[moe](G)[sp].[moe](T)[sp].d(G)[sp].d(C)[sp].d(A)[sp].d(G)[sp].d(A)[sp].d(G)[sp].d(G)[sp].d(T)[sp].d(G)[sp].d(A)[sp].[cEt](A)[sp].[cEt](G)[sp].[cEt](C)}$$$$V2.0 | 72% and 60% | –
RNA1{[moe](T)[sp].[moe](G)[sp].[moe](A)[sp].[moe](G)[sp].[moe](G)[sp].[moe](C)[sp].d(A)[sp].d(T)[sp].d(A)[sp].d(G)[sp].d(C)[sp].d(A)[sp].d(G)[sp].d(C)[sp].d(A)[sp].[moe](G)[sp].[moe](G)}$$$$V2.0 | 58% and 44% | –
RNA1{[moe](G)[sp].[moe](C)[sp].[moe](A)[sp].[moe](G)[sp].[moe](T)[sp].d(A)[sp].d(T)[sp].d(G)[sp].d(G)[sp].d(A)[sp].d(T)[sp].d(C)[sp].d(G)[sp].d(G)[sp].[moe](C)[sp].[moe](A)}$$$$V2.0 | 67% and 61% | –
RNA1{[moe](G)[sp].[moe](C)[sp].[moe](A)[sp].[moe](G)[sp].d(T)[sp].d(A)[sp].d(T)[sp].d(G)[sp].d(G)[sp].d(A)[sp].d(T)[sp].d(C)[sp].d(G)[sp].[moe](G)[sp].[moe](C)[sp].[moe](A)}$$$$V2.0 | 69% and 61% | –
RNA1{[moe](A)[sp].[moe](T)[sp].[moe](G)[sp].d(A)[sp].d(G)[sp].d(G)[sp].d(C)[sp].d(A)[sp].d(T)[sp].d(A)[sp].d(G)[sp].d(C)[sp].[moe](A)[sp].[moe](G)[sp].[moe](C)[sp].[moe](A)}$$$$V2.0 | 53% and 44% | –
RNA1{[moe](A)[sp].[moe](A)[sp].d(C)[sp].d(T)[sp].d(G)[sp].d(G)[sp].d(A)[sp].d(G)[sp].d(C)[sp].d(C)[sp].d(A)[sp].[moe](C)[sp].[moe](C)[sp].[moe](A)[sp].[moe](G)[sp].[moe](C)}$$$$V2.0 | 48% and 43% | –
RNA1{[moe](A)[sp].[moe](G)[sp].d(G)[sp].d(C)[sp].d(A)[sp].d(T)[sp].d(A)[sp].d(G)[sp].d(C)[sp].d(A)[sp].d(G)[sp].[moe](C)[sp].[moe](A)[sp].[moe](G)[sp].[moe](G)[sp].[moe](A)}$$$$V2.0 | 57% and 51% | –
RNA1{[moe](A)[sp].[moe](A)[sp].[moe](T)[sp].[moe](T)[sp].[moe](T)[sp].d(A)[sp].d(T)[sp].d(G)[sp].d(C)[sp].d(C)[sp].d(T)[sp].d(A)[sp].d(C)[sp].d(A)[sp].[moe](G)[sp].[moe](C)[sp].[moe](C)}$$$$V2.0 | 63% and 50% | –
RNA1{[moe](T)[sp].[moe](G)[sp].[moe](C)[sp].d(A)[sp].d(G)[sp].d(A)[sp].d(G)[sp].d(G)[sp].d(T)[sp].d(G)[sp].d(A)[sp].d(A)[sp].d(G)[sp].[cEt](C)[sp].[cEt](G)[sp].[cEt](A)}$$$$V2.0 | 78% and 79% | –
RNA1{[moe](G)[sp].[cEt](A)[sp].d(G)[sp].d(A)[sp].d(G)[sp].d(A)[sp].d(A)[sp].d(G)[sp].d(T)[sp].d(C)[sp].d(C)[sp].d(A)[sp].[cEt](C)[sp].[moe](C)[sp].[cEt](A)[sp].[moe](C)}$$$$V2.0 | 42% and 56% | –
RNA1{[moe](G)[sp].[cEt](C)[sp].[cEt](A)[sp].d(G)[sp].d(A)[sp].d(G)[sp].d(G)[sp].d(T)[sp].d(G)[sp].d(A)[sp].d(A)[sp].d(G)[sp].d(C)[sp].[cEt](G)[sp].[cEt](A)[sp].[moe](A)}$$$$V2.0 | 70% | –
RNA1{[moe](G)[sp].[moe](A)[sp].[moe](G)[sp].[moe](G)[sp].d(T)[sp].d(G)[sp].d(A)[sp].d(A)[sp].d(G)[sp].d(C)[sp].d(G)[sp].d(A)[sp].d(A)[sp].[moe](G)[sp].[moe](T)[sp].[moe](G)}$$$$V2.0 | 14% and 26% | –
RNA1{[moe](A)[sp].[moe](C)[sp].[moe](G)[sp].[moe](T)[sp].[moe](G)[sp].d(C)[sp].d(A)[sp].d(G)[sp].d(A)[sp].d(G)[sp].d(G)[sp].d(T)[sp].d(G)[sp].d(A)[sp].[moe](A)[sp].[moe](G)[sp].[moe](C)}$$$$V2.0 | 73% and 52% | –
RNA1{[moe](G)[sp].[cEt](T)[sp].d(C)[sp].d(C)[sp].d(A)[sp].d(C)[sp].d(C)[sp].d(A)[sp].d(C)[sp].d(G)[sp].d(A)[sp].d(G)[sp].[cEt](T)[sp].[moe](C)[sp].[cEt](T)[sp].[moe](A)}$$$$V2.0 | 51% and 38% | –
RNA1{[moe](A)[sp].[moe](T)[sp].[moe](T)[sp].[cEt](T)[sp].[cEt](A)[sp].d(T)[sp].d(G)[sp].d(C)[sp].d(C)[sp].d(T)[sp].d(A)[sp].d(C)[sp].[cEt](A)[sp].[cEt](G)[sp].[moe](C)[sp].[moe](C)[sp].[moe](T)}$$$$V2.0 | – | target mRNA inhibition (HepG2, 0.009375 µM): 4%; target mRNA inhibition (HepG2, 0.01875 µM): 30%; target mRNA inhibition (HepG2, 0.0375 µM): 44%; target mRNA inhibition (HepG2, 0.075 µM): 52%; target mRNA inhibition (HepG2, 0.15 µM): 67%; target mRNA inhibition (HepG2, 0.3 µM): 76%
RNA1{[moe](A)[sp].[moe](G)[sp].[moe](G)[sp].[moe](A)[sp].[moe](G)[sp].d(T)[sp].d(T)[sp].d(C)[sp].d(C)[sp].d(G)[sp].d(C)[sp].d(A)[sp].d(G)[sp].d(T)[sp].[moe](A)[sp].[moe](T)}$$$$V2.0 | 62% and 48% | –
RNA1{[moe](G)[sp].[cEt](T)[sp].d(G)[sp].d(A)[sp].d(A)[sp].d(G)[sp].d(C)[sp].d(G)[sp].d(A)[sp].d(A)[sp].d(G)[sp].d(T)[sp].[cEt](G)[sp].[moe](C)[sp].[cEt](A)[sp].[moe](C)}$$$$V2.0 | 81% and 80% | target mRNA inhibition (HepG2, 0.0092593 µM): 18%; target mRNA inhibition (HepG2, 0.0277778 µM): 36%; target mRNA inhibition (HepG2, 0.0833333 µM): 75%; target mRNA inhibition (HepG2, 0.25 µM): 88%
RNA1{[moe](C)[sp].[cEt](G)[sp].d(C)[sp].d(A)[sp].d(G)[sp].d(T)[sp].d(A)[sp].d(T)[sp].d(G)[sp].d(G)[sp].d(A)[sp].d(T)[sp].[cEt](C)[sp].[moe](G)[sp].[cEt](G)[sp].[moe](C)}$$$$V2.0 | 83% and 92% | target mRNA inhibition (HepG2, 0.0092593 µM): 22%; target mRNA inhibition (HepG2, 0.0277778 µM): 49%; target mRNA inhibition (HepG2, 0.0833333 µM): 82%; target mRNA inhibition (HepG2, 0.25 µM): 91%
RNA1{[moe](G)[sp].[moe](A)[sp].[moe](A)[sp].d(C)[sp].d(A)[sp].d(A)[sp].d(A)[sp].d(T)[sp].d(G)[sp].d(G)[sp].d(C)[sp].d(A)[sp].d(C)[sp].[cEt](T)[sp].[cEt](A)[sp].[cEt](G)}$$$$V2.0 | 80% and 81% | target mRNA inhibition (HepG2, 0.0092593 µM): 15%; target mRNA inhibition (HepG2, 0.0277778 µM): 40%; target mRNA inhibition (HepG2, 0.0833333 µM): 69%; target mRNA inhibition (HepG2, 0.25 µM): 86%
